# Assay results published in patent US20200291018A1, “TAM KINASE INHIBITORS” (SYROS PHARMACEUTICALS, INC., priority 2017, published 2020).
# pIC50: −log10 of the molar value. Counter-ions that a name gives are not always drawn.
# Tests used:
# [1] = molecular target: T1, AXL (Homo sapiens, UniProt P30530); test: TR-FRET kinase activity assay, AXL; format: biochemical; details: ATP at Km, 60 minutes
# T1 sequence (P30530 26-894): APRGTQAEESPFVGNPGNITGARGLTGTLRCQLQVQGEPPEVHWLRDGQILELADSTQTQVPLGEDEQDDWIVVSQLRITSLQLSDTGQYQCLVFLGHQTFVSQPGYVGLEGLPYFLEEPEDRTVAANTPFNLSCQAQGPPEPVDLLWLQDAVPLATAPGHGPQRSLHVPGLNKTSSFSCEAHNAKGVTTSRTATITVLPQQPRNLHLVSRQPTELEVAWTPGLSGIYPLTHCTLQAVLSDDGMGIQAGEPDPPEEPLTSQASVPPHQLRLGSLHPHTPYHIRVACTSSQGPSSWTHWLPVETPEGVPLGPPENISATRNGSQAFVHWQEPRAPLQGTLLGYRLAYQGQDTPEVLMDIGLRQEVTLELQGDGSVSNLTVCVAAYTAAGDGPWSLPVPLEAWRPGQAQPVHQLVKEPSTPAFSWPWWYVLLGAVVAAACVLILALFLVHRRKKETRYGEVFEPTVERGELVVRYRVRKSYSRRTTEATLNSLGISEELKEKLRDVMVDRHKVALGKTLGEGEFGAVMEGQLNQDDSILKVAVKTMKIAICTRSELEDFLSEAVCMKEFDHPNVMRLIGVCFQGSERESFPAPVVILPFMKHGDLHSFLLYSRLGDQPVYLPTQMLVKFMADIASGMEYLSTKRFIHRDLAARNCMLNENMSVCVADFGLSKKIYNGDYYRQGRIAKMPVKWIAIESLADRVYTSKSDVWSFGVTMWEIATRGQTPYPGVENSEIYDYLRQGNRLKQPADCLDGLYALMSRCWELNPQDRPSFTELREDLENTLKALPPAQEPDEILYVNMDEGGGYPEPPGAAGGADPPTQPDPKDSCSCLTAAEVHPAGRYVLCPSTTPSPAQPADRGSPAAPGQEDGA
# Protocol: (§1) IC50 values for compound inhibition of AXL, FLT3, MERTK and TYRO3 activity were determined using a TR-FRET activity assay. A peptide substrate with a fluorescent label is phosphorylated on a tyrosine by each enzyme, where the now phosphorylated product is bound by a Europium-labeled antibody specific to that phosphorylation site. The proximity between the antibody and the substrate gives a signal known as TR-FRET. As the enzyme is inhibited by compound, less phosphorylated peptide product is made, causing a decrease in overall signal.
# (§2) Activity assays were performed in a 384-well, small volume, black microplates in an active enzyme volume of 10 uL and final developed volume of 20 uL. Final assay conditions are 50 mM HEPES pH 7.5, 10 mM MgCl2, 1 mM EGTA, 0.01% Brij 35 and 1 mM DTT, all at RT. Enzyme, substrate-labeled peptide and compound are mixed, and then the reaction is initiated with the addition of ATP at Km concentration for each enzyme. The reaction is allowed to run 60 minutes and then quenched with a 12.5 mM EDTA (ethylenediamine tetraacetic acid) solution. The plate is then developed with the addition of Europium-labeled antibody for a final volume of 20 uL and is then incubated for 30 minutes in darkness. Plates are read in a PHERASTAR® plate reader. Data are analyzed in GraphPad PRISM.
# [2] = molecular target: T2, TYRO3 (Homo sapiens, UniProt Q06418); test: TR-FRET kinase activity assay, TYRO3; format: biochemical; details: ATP at Km, 60 minutes
# T2 sequence (Q06418 41-890): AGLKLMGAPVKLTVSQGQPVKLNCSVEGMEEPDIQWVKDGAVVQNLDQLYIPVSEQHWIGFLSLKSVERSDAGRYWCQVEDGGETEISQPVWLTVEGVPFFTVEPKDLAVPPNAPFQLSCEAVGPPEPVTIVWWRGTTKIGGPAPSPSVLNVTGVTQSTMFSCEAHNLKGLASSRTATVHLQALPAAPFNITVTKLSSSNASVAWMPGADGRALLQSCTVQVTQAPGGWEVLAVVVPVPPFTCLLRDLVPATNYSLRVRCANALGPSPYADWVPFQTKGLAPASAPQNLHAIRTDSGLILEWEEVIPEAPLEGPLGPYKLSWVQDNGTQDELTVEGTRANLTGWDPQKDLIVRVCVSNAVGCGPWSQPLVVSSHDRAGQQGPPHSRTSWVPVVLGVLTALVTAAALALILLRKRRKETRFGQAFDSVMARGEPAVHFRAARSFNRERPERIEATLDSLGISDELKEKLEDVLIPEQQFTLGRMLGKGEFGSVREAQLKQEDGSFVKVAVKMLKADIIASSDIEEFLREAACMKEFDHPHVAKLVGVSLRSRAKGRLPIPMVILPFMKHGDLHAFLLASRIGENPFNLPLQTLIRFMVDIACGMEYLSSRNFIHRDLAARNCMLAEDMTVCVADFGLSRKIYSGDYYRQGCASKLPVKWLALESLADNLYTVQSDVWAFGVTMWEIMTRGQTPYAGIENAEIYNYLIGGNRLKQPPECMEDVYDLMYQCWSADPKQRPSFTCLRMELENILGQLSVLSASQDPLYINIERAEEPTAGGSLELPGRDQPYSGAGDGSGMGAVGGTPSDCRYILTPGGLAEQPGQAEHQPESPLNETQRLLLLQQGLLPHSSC
# Protocol: as §1, §2
SMILES,pIC50 [1],pIC50 [2]
CC[C@H](C)Nc1ncc2c(=O)n(CC34CCC(N(C)C)(CC3)CC4)cc([C@H]3CC[C@H](O)CC3)c2n1 [Compound 264],≥ 7.00,≥ 7.00
CCOc1ncc(CC2CCNCC2)c2nc(N[C@@H](C)CC)ncc12 [Compound 236],6.00 to 7.00,6.00 to 7.00
"CCCCNc1cc2c(cn1)c(=O)n(C1CCNCC1)cc2[C@H]1CC[C@H](O)CC1 [Compound 109, 6-(butylamino)-4-((1r,4r)-4-hydroxycyclohexyl)-2-(piperidin-4-yl)-2,7-naphthyridin-1(2H)-one hydrochloride]",6.00 to 7.00,≥ 7.00
CCOc1ncc(C2CCN(C)CC2)c2nc(N[C@@H](C)CC)ncc12 [Compound 215],5.00 to 6.00,≥ 7.00
CCc1cccc(Nc2ncc3c(OC4CCNCC4)ncc([C@H]4CC[C@H](O)CC4)c3n2)c1 [Compound 207],≥ 7.00,6.00 to 7.00
CC[C@H](C)Nc1ncc2c(=O)n(CC34CCC(N)(CC3)CC4)cc([C@H]3CC[C@H](O)CC3)c2n1 [Compound 251],6.00 to 7.00,≥ 7.00
O[C@H]1CC[C@H](c2cnc(OC3CCNCC3)c3cnc(Nc4cccc(Cl)c4)nc32)CC1 [Compound 205],≥ 7.00,≥ 7.00
O[C@H]1CC[C@H](c2cnc(OC3CCNCC3)c3cnc(Nc4ccccc4)nc32)CC1 [Compound 210],≥ 7.00,≥ 7.00
CCCC(C)Nc1ncc2c(=O)n(C3CCN(C4COC4)CC3)cc([C@H]3CC[C@H](O)CC3)c2n1 (some centres unmarked) [Compound 201],6.00 to 7.00,≥ 7.00
CC(C)Nc1ncc2c(OC3CCOCC3)ncc(-c3cccc(CC#N)c3)c2n1 [Compound 274],6.00 to 7.00,6.00 to 7.00
Cc1cccc(Nc2ncc3c(OC4CCNCC4)ncc([C@H]4CC[C@H](O)CC4)c3n2)c1 [Compound 197],≥ 7.00,≥ 7.00
CCCC(C)Nc1ncc2c(=O)n([C@@H]3CCCN(C)C3)cc([C@H]3CC[C@H](O)CC3)c2n1 (some centres unmarked) [Compound 200],5.00 to 6.00,≥ 7.00
COC[C@H](C)Nc1ncc2c(OC3CC(C)(C)N(C)C(C)(C)C3)ncc([C@H]3CC[C@H](O)CC3)c2n1 [Compound 259],≥ 7.00,≥ 7.00
O[C@H]1CC[C@H](c2cnc(OC3CCNCC3)c3cnc(Nc4ccc(Cl)cc4)nc32)CC1 [Compound 206],≥ 7.00,≥ 7.00
CC[C@H](C)Nc1ncc2c(=O)n(C[C@H]3COCCN3C)cc([C@H]3CC[C@H](O)CC3)c2n1 [Compound 265],5.00 to 6.00,6.00 to 7.00
CC[C@H](C)NC1=NC2C([C@H]3CC[C@H](O)CC3)=CN(C(C)C)C(=O)C2C=N1 (some centres unmarked) [Compound 231],6.00 to 7.00,≥ 7.00
CC(Nc1ncc2c(OC3CCNCC3)ncc([C@H]3CC[C@H](O)CC3)c2n1)c1ccncc1 (some centres unmarked) [Compound 202],5.00 to 6.00,≥ 7.00
CCC(CC)Nc1ncc2c(OC3CCNCC3)ncc([C@H]3CC[C@H](O)CC3)c2n1 [Compound 228],6.00 to 7.00,6.00 to 7.00
O[C@H]1CC[C@H](c2cnc(OC3CCNCC3)c3cnc(NCCC(F)(F)F)nc32)CC1 [Compound 224],≥ 7.00,6.00 to 7.00
COC(=O)c1ccc(Nc2ncc3c(OC4CCNCC4)ncc([C@H]4CC[C@H](O)CC4)c3n2)cc1 [Compound 272],≥ 7.00,≥ 7.00
O[C@H]1CC[C@H](c2cnc(OC3CCNCC3)c3cnc(NC4CCOCC4)nc32)CC1 [Compound 211],6.00 to 7.00,6.00 to 7.00
CC[C@H](C)Nc1ncc2c(=O)n(CC34CCC(O)(CC3)CC4)cc([C@H]3CC[C@H](O)CC3)c2n1 [Compound 257],≥ 7.00,≥ 7.00

# Second part, the compound after the results:
pIC50 [1],pIC50 [2],SMILES
6.00 to 7.00,5.00 to 6.00,CCc1ncc([C@H]2CC[C@H](O)CC2)c2nc(N[C@@H](C)CC)ncc12 [Compound 244]
≥ 7.00,≥ 7.00,CC[C@H](C)Nc1ncc2c(O[C@H]3CC[C@H](N(C)C)C3)ncc([C@H]3CC[C@H](O)CC3)c2n1 [Compound 267]
≥ 7.00,≥ 7.00,CCOc1ncc([C@H]2CC[C@H](O)CC2)c2nc(N[C@@H](C)CC)ncc12 [Compound 235]
5.00 to 6.00,6.00 to 7.00,CC[C@H](C)Nc1ncc2c(C3CCN(C)CC3)ncc([C@H]3CC[C@H](O)CC3)c2n1 [Compound 240]
≥ 7.00,≥ 7.00,CCCC(C)Nc1ncc2c(OC3CCNCC3)ncc([C@H]3CC[C@H](O)CC3)c2n1 (some centres unmarked) [Compound 203]
5.00 to 6.00,≥ 7.00,CCCC(C)Nc1ncc2c(=O)n([C@H]3CCN(C)C[C@@H]3F)cc([C@H]3CC[C@H](O)CC3)c2n1 (some centres unmarked) [Compound 199]
5.00 to 6.00,6.00 to 7.00,CC[C@H](C)Nc1ncc2c(OC3C[C@@H](C)O[C@@H](C)C3)ncc([C@H]3CC[C@H](O)CC3)c2n1 (some centres unmarked) [Compound 247]
≥ 7.00,≥ 7.00,CC[C@H](C)Nc1ncc2c(OC3CC(C)(C)N(C)C(C)(C)C3)ncc([C@H]3CC[C@H](O)CC3)c2n1 [Compound 227]
6.00 to 7.00,6.00 to 7.00,CC[C@H](C)Nc1ncc2c(Cl)ncc([C@H]3CC[C@H](O)CC3)c2n1 [Compound 230]
5.00 to 6.00,5.00 to 6.00,CC[C@H](C)Nc1ncc2c(OC3C[C@H]4CC[C@@H](C3)O4)ncc([C@H]3CC[C@H](O)CC3)c2n1 (some centres unmarked) [Compound 237]
6.00 to 7.00,≥ 7.00,CC[C@H](C)Nc1ncc2c(=O)n(C3CCN(S(C)(=O)=O)CC3)cc([C@H]3CC[C@H](O)CC3)c2n1 [Compound 234]
5.00 to 6.00,≥ 7.00,CC[C@H](C)Nc1ncc2c(NC3CCOCC3)ncc([C@H]3CC[C@H](O)CC3)c2n1 [Compound 217]
6.00 to 7.00,6.00 to 7.00,CC[C@H](C)Nc1ncc2c(OC3C[C@H]4CC[C@@H](C3)O4)ncc([C@H]3CC[C@H](O)CC3)c2n1 (some centres unmarked) [Compound 223]
6.00 to 7.00,≥ 7.00,CC[C@H](C)Nc1ncc2c(N3CC[C@@H](N(C)C)C3)ncc([C@H]3CC[C@H](O)CC3)c2n1 [Compound 222]
6.00 to 7.00,6.00 to 7.00,CCC[C@@H](C)Nc1ncc2c(OC3CCNCC3)ncc([C@H]3CC[C@@H](O)CC3)c2n1 [Compound 204]
6.00 to 7.00,6.00 to 7.00,CC[C@H](C)Nc1ncc2c(OC3CCN(C)CC3)ncc([C@H]3CC[C@H](O)CC3)c2n1 [Compound 221]
≥ 7.00,≥ 7.00,CC[C@H](C)Nc1ncc2c(OC3CCN(S(C)(=O)=O)CC3)ncc([C@H]3CC[C@H](O)CC3)c2n1 [Compound 233]
6.00 to 7.00,≥ 7.00,CCC[C@@H](C)Nc1ncc2c(OC3CCNCC3)ncc([C@H]3CC[C@H](O)CC3)c2n1 [Compound 196]
